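In this assay, cells in 96-well plates receive the compound at five concentrations for 48 hours. Endpoints are linearly interpolated between the surrounding concentrations. Here, GI50 denotes the concentration required for 50% inhibition of growth. TGI marks complete inhibition of growth.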
Assays:
Test in all cases: NCI-60 cell line screen, 48 h
SW-620 colon = test system: SW-620 colon
MDA-N = test system: MDA-N
SNB-19 CNS = test system: SNB-19 CNS
OVCAR-8 ovarian = test system: OVCAR-8 ovarian
HOP-62 NSCLC = test system: HOP-62 NSCLC
MDA-MB-231 breast = test system: MDA-MB-231 breast
SNB-75 CNS = test system: SNB-75 CNS
HCT-116 colon = test system: HCT-116 colon
UO-31 renal = test system: UO-31 renal
BT-549 breast = test system: BT-549 breast
A549 NSCLC = test system: A549 NSCLC

| SMILES | TGI (SW-620 colon) | TGI (MDA-N) | GI50 (SNB-19 CNS) | TGI (SNB-19 CNS) | GI50 (OVCAR-8 ovarian) | TGI (OVCAR-8 ovarian) | GI50 (HOP-62 NSCLC) | TGI (HOP-62 NSCLC) | GI50 (MDA-MB-231 breast) | TGI (MDA-MB-231 breast) | TGI (SNB-75 CNS) | GI50 (HCT-116 colon) | TGI (HCT-116 colon) | GI50 (UO-31 renal) | TGI (UO-31 renal) | GI50 (BT-549 breast) | TGI (BT-549 breast) | GI50 (A549 NSCLC) | TGI (A549 NSCLC) |
| --- | --- | --- | --- | --- | --- | --- | --- | --- | --- | --- | --- | --- | --- | --- | --- | --- | --- | --- | --- |
| CC(C)=CC(=O)O[C@H]1C(=O)O[C@@H]2C[C@H]3[C@H](C)C(=O)C(O[C@@H]4O[C@H](CO)[C@@H](O)[C@H](O)[C@H]4O)=C[C@]3(C)[C@H]3[C@@H](O)[C@H](O)[C@]4(C(=O)O)OC[C@]32[C@@H]14 | > 100 µM | > 100 µM | 31.3 µM | > 100 µM | > 100 µM | > 100 µM | 33.2 µM | > 100 µM | > 100 µM | > 100 µM | > 100 µM | 29.8 µM | > 100 µM | 31.3 µM | > 100 µM | > 100 µM | > 100 µM | 55 µM | > 100 µM |
| Cc1ccc(OCC2OC(n3cnc4nc(Cl)nc(Cl)c43)CC2Oc2ccc(C)cc2)cc1 (stereo unspecified) | 28 µM | 13.7 µM | – | 30.1 µM | – | 59.5 µM | – | 34.8 µM | – | 6.56 µM | 28.5 µM | – | 17.9 µM | – | 22 µM | – | 30.4 µM | – | > 63.3 µM |
| O=C(CN1CCN(Cc2ccccc2)CC1)N1CCCn2c1nc1ccccc1c2=O | > 100 µM | > 100 µM | – | > 100 µM | – | > 100 µM | – | > 100 µM | – | > 100 µM | > 100 µM | – | > 100 µM | – | > 100 µM | – | > 100 µM | – | > 100 µM |
| O=c1/c(=C\c2ccccc2)sc2n1C(c1ccccc1)C1(O)CCCCC1N=2 (stereo unspecified) | > 100 µM | > 100 µM | – | > 100 µM | – | > 100 µM | – | > 100 µM | – | > 100 µM | > 100 µM | – | > 100 µM | – | > 100 µM | – | > 100 µM | – | > 100 µM |
| COc1ccc2[nH]c(Cl)c(/C=C3/C(=O)Nc4cc(C)c(OC)cc43)c2c1 | 18.1 µM | 3.5 µM | – | 22.2 µM | – | 25.7 µM | – | 18.5 µM | – | 20.6 µM | 23.4 µM | – | 15.7 µM | – | 28.5 µM | – | 21.5 µM | – | 92.6 µM |
| Clc1cc2c(c(CSC3=NCN(CC4CC4)CN3)c1)OCOC2 | 65.1 µM | 38.6 µM | – | > 100 µM | – | > 100 µM | – | 86.7 µM | – | 48 µM | 39.6 µM | – | 42.8 µM | – | 37.1 µM | – | 51.5 µM | – | 77.6 µM |
| c1ccc(-c2sc(-c3cccs3)cc2Cc2cccs2)cc1 | > 10 µM | > 10 µM | – | > 10 µM | – | > 10 µM | – | > 10 µM | – | > 10 µM | > 10 µM | – | > 10 µM | – | > 10 µM | – | > 10 µM | – | > 10 µM |
| c1ccc(C2=Nc3nc4ccccc4n3C(c3ccccc3)C2)cc1 (stereo unspecified) | > 100 µM | > 100 µM | – | > 100 µM | – | > 100 µM | – | > 100 µM | – | > 100 µM | > 100 µM | – | > 100 µM | – | > 100 µM | – | > 100 µM | – | > 100 µM |
| CC(=O)N1CCc2c([nH]c3ccc(Br)cc23)C1c1ccccc1 (stereo unspecified) | > 10 µM | > 10 µM | – | > 10 µM | – | > 10 µM | – | > 10 µM | – | > 10 µM | > 10 µM | – | > 10 µM | – | > 10 µM | – | > 10 µM | – | > 10 µM |
| Cc1cc(-c2[nH]c(C(=O)O)cc2I)on1 | > 100 µM | > 100 µM | – | > 100 µM | – | 81.9 µM | – | > 100 µM | – | > 100 µM | > 100 µM | – | > 100 µM | – | > 100 µM | – | > 100 µM | – | > 100 µM |
| Cn1c(=O)c2c(nc3n(Cc4ccccc4)c(=O)c(NCCBr)cn23)n(C)c1=O | > 100 µM | > 100 µM | – | > 100 µM | – | 33.8 µM | – | 43.2 µM | – | 72.2 µM | 49.8 µM | – | 82 µM | – | 36 µM | – | > 100 µM | – | > 100 µM |
| COc1ccc2cc1Oc1ccc(cc1)C(Sc1ccccc1)CCOC(=O)CC2 (stereo unspecified) | > 100 µM | > 100 µM | – | > 100 µM | – | > 100 µM | – | > 100 µM | – | > 100 µM | > 100 µM | – | > 100 µM | – | > 100 µM | – | > 100 µM | – | > 100 µM |
| O=C(/C=C/c1ccsc1)c1ccco1 | 22 µM | 25.2 µM | – | 28.8 µM | – | 24 µM | – | 28.1 µM | – | 26.9 µM | 26 µM | – | 16.6 µM | – | 22.7 µM | – | 33.2 µM | – | 11.7 µM |
| C=CC1ON(Cc2ccccc2)CCc2cc(OC)c(OC)cc21 (stereo unspecified) | > 100 µM | 89.5 µM | – | > 100 µM | – | > 100 µM | – | > 100 µM | – | > 100 µM | > 100 µM | – | > 100 µM | – | > 100 µM | – | > 100 µM | – | > 100 µM |
| O=C1Sc2ccc(Br)cc2C(=O)Sc2ccccc21 | 67.7 µM | 22.8 µM | – | 29.5 µM | – | 24 µM | – | 28.4 µM | – | 31.7 µM | 26.1 µM | – | 26.9 µM | – | 27.1 µM | – | 28.2 µM | – | > 71.1 µM |
| C1CSCCCSCCSCCCSC1 | > 100 µM | > 100 µM | – | > 100 µM | – | > 100 µM | – | > 100 µM | – | > 100 µM | > 100 µM | – | > 100 µM | – | > 100 µM | – | > 100 µM | – | > 100 µM |
| CCOC(=O)/C(=C\c1ccc(N(C)C)cc1)S(=O)(=O)C(F)(F)C(F)(F)C(F)(F)C(F)(F)F | > 100 µM | > 100 µM | – | > 100 µM | – | > 100 µM | – | > 100 µM | – | > 100 µM | > 100 µM | – | > 100 µM | – | > 100 µM | – | > 100 µM | – | > 100 µM |
| O=c1c(SSc2coc3cc(F)ccc3c2=O)coc2cc(F)ccc12 | 43 µM | 34.3 µM | – | > 100 µM | – | > 100 µM | – | > 100 µM | – | 37.1 µM | 33.6 µM | – | 19.3 µM | – | 52.7 µM | – | > 100 µM | – | > 100 µM |
